For one substance, IFN-gamma expression level results are on record in patent US20050042283A1, “Histamine and CCK2/gastrin receptor blockade in the treatment of acid-peptic disease and cancer” (UNIVERSITY OF MASSACHUSETTS, priority 2003, published 2005).

In this assay the test system is IFN-gamma. Put plainly: Real-time RT-PCR of cytokine expression: IFN-gamma. Format: in vivo. As to conditions: 6 months, versus untreated mice. Here is the method: Real-time RT-PCR assay of growth factors and cytokine expression profiles Total RNAs were extracted from a sample of whole stomach from each animal with Trizol (Invitrogen, Calif.) and five micrograms of total RNA were used for first strand cDNA synthesis using Superscript II cDNA amplification System (Invitrogen, Calif.) following manufacturer's instructions. Real-time PCR was performed as above using RT-PCR primers for each gene as listed below. All primers were designed using Lasergene ver5.0 software (DNASTAR inc., Madison, Wis.). Results were calculated by minus delta delta threshold cycle (-ΔΔCt) method (Livak, K. J. et al., 2001). Briefly, the threshold cycle Ct1 of each sample reaction was deducted from the threshold cycle Ct2 of GAPDH reaction for normalization, and then deducted from the threshold cycle Ct3 of calibration control (45 cycles in this experiment), i.e., the final result was represented by the formula; Ct3-(Ct1-Ct2). […]
(In qPCR the cycle at which signal appears reflects the starting amount.)

As to “1-methyl-5-((3-(3-(1-piperidinylmethyl)phenoxy)propyl)amino)-1H-1,2,4-triazole-3-ethanol [Loxtidine]”, the IFN-gamma expression level result reads like this: (listed as Loxtidine alone) “significantly lower level”; (listed as loxtidine alone) “significantly down-regulated”.
